Assay results from ChEMBL document CHEMBL5058649, “Data for DCP probe BAY 1816032” (2022).
Activity calls are given as the source filed them. The rule behind the calls is not given here.

Columns and labels:
[1] = target: Dual serine/threonine and tyrosine protein kinase (Homo sapiens) (UniProt Q6XUX3); test: RIPK5 DiscoveRx kinase panel; conditions: Compound concentration 1.0 uM
[2] = target: Homeodomain-interacting protein kinase 4 (Homo sapiens) (UniProt Q8NE63); test: HIPK4 DiscoveRx kinase panel; conditions: Compound concentration 1.0 uM
[3] = target: Receptor-interacting serine/threonine-protein kinase 1 (Homo sapiens) (UniProt Q13546); test: RIPK1 DiscoveRx kinase panel; conditions: Compound concentration 1.0 uM
Sequence of Receptor-interacting serine/threonine-protein kinase 1 (Homo sapiens) (Q13546 whole entry): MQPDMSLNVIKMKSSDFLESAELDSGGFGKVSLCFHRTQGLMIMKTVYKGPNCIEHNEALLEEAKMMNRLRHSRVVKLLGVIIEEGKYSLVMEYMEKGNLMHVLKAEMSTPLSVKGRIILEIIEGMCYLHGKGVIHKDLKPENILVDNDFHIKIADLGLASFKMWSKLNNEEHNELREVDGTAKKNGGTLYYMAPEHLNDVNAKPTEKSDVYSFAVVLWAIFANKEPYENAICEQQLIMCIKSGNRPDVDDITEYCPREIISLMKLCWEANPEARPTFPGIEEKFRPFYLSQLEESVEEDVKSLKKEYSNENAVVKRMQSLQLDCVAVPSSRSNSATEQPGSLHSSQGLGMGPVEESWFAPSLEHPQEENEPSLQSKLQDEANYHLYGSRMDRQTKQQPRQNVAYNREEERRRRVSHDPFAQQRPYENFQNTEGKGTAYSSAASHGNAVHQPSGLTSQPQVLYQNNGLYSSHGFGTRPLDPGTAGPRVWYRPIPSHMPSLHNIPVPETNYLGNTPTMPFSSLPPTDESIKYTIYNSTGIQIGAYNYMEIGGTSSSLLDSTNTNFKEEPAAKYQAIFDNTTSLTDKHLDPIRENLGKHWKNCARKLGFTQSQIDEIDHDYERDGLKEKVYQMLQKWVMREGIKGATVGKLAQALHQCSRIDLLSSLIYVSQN

[4] = target: Alpha-1D adrenergic receptor (Homo sapiens) (UniProt P25100); test: Inhibition of Adrenergic alpha1D at 10 µM in the Eurofins-Panlabs radioligand binding assay (Eurofins_assay_203400); conditions: Compound concentration 10.0 uM
Sequence of Alpha-1D adrenergic receptor (Homo sapiens) (P25100 whole entry): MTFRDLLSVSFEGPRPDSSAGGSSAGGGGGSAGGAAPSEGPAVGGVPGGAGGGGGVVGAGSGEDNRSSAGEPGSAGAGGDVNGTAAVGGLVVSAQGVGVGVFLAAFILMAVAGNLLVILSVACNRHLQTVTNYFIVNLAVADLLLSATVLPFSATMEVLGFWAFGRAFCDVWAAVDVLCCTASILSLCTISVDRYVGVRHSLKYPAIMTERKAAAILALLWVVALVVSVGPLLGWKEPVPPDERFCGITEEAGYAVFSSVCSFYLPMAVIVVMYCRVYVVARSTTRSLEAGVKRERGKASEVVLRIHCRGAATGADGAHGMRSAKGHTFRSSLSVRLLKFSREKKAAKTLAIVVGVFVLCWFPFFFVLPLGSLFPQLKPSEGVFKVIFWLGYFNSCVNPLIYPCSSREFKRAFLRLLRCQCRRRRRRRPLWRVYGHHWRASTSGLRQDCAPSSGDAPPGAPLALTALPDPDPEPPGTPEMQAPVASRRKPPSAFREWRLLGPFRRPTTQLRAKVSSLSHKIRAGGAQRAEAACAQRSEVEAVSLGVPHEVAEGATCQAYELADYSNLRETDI

SK-BR-3 = test: SK-BR-3 cell line Proliferation assay; format: functional, Homo sapiens; conditions: time 4 day
[5] = target: Cyclin-dependent kinase 5 (Homo sapiens) (UniProt Q00535); test: CDK5 DiscoveRx kinase panel; conditions: Compound concentration 1.0 uM
[6] = target: Glutamate NMDA receptor (Rattus norvegicus) (UniProt P35439+Q00959+Q00960+Q00961+Q62645+Q8VHN2+Q9R1M7); conditions: Compound concentration 10.0 uM
[7] = target: Serine/threonine-protein kinase PLK2 (Homo sapiens) (UniProt Q9NYY3); test: PLK2 DiscoveRx kinase panel; conditions: Compound concentration 1.0 uM
[8] = target: Dual specificity protein kinase CLK2 (Homo sapiens) (UniProt P49760); test: CLK2 DiscoveRx kinase panel; conditions: Compound concentration 1.0 uM
[9] = target: Tyrosine-protein kinase Lck (Homo sapiens) (UniProt P06239); test: LCK DiscoveRx kinase panel; conditions: Compound concentration 1.0 uM
Sequence of Tyrosine-protein kinase Lck (Homo sapiens) (P06239 2-509 limits assumed): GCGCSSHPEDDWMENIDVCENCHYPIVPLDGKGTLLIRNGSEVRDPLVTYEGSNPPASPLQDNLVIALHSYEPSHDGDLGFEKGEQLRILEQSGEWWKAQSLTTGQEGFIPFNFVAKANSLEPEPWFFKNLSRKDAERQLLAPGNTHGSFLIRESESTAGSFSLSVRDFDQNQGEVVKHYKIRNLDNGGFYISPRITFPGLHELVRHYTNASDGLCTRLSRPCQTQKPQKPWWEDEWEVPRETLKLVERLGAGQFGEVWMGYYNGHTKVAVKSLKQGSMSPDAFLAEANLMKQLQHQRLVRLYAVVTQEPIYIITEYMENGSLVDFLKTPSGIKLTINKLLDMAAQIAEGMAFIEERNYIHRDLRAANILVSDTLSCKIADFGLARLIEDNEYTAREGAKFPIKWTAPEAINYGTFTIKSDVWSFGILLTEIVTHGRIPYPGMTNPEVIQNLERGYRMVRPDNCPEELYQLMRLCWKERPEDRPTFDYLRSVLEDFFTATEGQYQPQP

[10] = target: Androgen receptor (Homo sapiens) (UniProt P10275); conditions: Compound concentration 10.0 uM
[11] = target: Voltage-dependent N-type calcium channel subunit alpha-1B (Homo sapiens) (UniProt Q00975); test: Inhibition of Calcium Channel N-Type at 10 µM in the Eurofins-Panlabs radioligand binding assay (Eurofins_assay_216000); conditions: Rattus norvegicus; Compound concentration 10.0 uM
[12] = target: Serine/threonine-protein kinase WNK4 (Homo sapiens) (UniProt Q96J92); test: WNK4 DiscoveRx kinase panel; conditions: Compound concentration 1.0 uM
[13] = target: Serine/threonine-protein kinase ULK3 (Homo sapiens) (UniProt Q6PHR2); test: ULK3 DiscoveRx kinase panel; conditions: Compound concentration 1.0 uM
[14] = target: Leukocyte tyrosine kinase receptor (Homo sapiens) (UniProt P29376); test: LTK DiscoveRx kinase panel; conditions: Compound concentration 1.0 uM
[15] = target: Misshapen-like kinase 1 (Homo sapiens) (UniProt Q8N4C8); test: MINK DiscoveRx kinase panel; conditions: Compound concentration 1.0 uM
[16] = target: Mitogen-activated protein kinase kinase kinase 5 (Homo sapiens) (UniProt Q99683); test: ASK1 DiscoveRx kinase panel; conditions: Compound concentration 1.0 uM
[17] = target: Casein kinase I isoform gamma-1 (Homo sapiens) (UniProt Q9HCP0); test: CSNK1G1 DiscoveRx kinase panel; conditions: Compound concentration 1.0 uM
Homo sapiens = species: Homo sapiens; test: Glutamate, Metabotropic, mGlu5 Eurofins-Panlabs radioligand binding assay; conditions: Compound concentration 10.0 uM
[18] = target: Interleukin-1 receptor-associated kinase 4 (Homo sapiens) (UniProt Q9NWZ3); test: IRAK4 DiscoveRx kinase panel; conditions: Compound concentration 1.0 uM
[19] = target: Serine/threonine-protein kinase pim-3 (Homo sapiens) (UniProt Q86V86); test: PIM3 DiscoveRx kinase panel; conditions: Compound concentration 1.0 uM
[20] = target: Phosphodiesterase 3 (Homo sapiens) (UniProt Q14432+Q13370); test: Inhibition of Phosphodiesterase PDE3 at compound concentration of 10.0 uM in the Eurofins-Panlabs enzyme assay (Eurofins_assay_152000); format: protein assay; design: substrate with concentration 1.01 uM [3H] cAMP + cAMP, incubation time 20 min, incubation temperature 25 C; conditions: Compound concentration 10.0 uM
[21] = target: Activin receptor type-2B (Homo sapiens) (UniProt Q13705); test: ACVR2B DiscoveRx kinase panel; conditions: Compound concentration 1.0 uM
[22] = target: Rho-associated protein kinase 2 (Homo sapiens) (UniProt O75116); test: ROCK2 DiscoveRx kinase panel; conditions: Compound concentration 1.0 uM
Sequence of Rho-associated protein kinase 2 (Homo sapiens) (O75116 whole entry, looked up): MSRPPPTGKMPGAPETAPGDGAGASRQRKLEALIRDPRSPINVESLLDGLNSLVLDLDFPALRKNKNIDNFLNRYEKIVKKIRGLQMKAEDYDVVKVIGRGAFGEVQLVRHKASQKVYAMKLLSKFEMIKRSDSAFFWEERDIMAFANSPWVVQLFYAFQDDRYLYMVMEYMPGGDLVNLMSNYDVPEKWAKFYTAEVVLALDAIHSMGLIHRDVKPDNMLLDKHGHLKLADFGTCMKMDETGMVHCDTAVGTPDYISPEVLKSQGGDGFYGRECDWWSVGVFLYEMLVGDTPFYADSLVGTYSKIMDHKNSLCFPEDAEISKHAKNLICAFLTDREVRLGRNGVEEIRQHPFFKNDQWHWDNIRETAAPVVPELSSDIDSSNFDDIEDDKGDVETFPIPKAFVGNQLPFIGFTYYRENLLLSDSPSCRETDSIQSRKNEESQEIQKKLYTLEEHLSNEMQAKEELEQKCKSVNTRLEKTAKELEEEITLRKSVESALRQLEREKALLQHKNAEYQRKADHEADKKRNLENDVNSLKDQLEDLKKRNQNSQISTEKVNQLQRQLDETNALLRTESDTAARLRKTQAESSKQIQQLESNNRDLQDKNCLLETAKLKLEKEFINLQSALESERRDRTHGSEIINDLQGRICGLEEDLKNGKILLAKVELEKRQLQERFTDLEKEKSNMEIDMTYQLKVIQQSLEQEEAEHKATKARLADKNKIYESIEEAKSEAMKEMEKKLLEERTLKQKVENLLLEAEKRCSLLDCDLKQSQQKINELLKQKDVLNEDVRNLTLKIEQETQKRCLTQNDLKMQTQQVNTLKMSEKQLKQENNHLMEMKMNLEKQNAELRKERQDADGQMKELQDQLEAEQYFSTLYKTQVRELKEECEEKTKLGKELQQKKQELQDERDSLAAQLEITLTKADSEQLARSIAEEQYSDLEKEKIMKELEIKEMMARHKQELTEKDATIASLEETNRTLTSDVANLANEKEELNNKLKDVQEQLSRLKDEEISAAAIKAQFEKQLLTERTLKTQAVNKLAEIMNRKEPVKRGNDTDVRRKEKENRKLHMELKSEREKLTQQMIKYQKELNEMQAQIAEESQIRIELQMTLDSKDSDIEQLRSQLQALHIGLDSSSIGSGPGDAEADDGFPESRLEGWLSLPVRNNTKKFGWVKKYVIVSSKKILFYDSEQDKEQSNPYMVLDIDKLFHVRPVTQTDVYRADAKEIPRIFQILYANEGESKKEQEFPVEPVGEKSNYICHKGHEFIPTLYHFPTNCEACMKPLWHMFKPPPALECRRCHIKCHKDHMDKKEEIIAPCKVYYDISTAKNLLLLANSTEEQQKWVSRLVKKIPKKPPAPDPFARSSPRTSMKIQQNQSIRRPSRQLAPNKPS

[23] = target: Tyrosine-protein kinase Fgr (Homo sapiens) (UniProt P09769); test: FGR DiscoveRx kinase panel; conditions: Compound concentration 1.0 uM
[24] = target: Mitogen-activated protein kinase kinase kinase kinase 4 (Homo sapiens) (UniProt O95819); test: MAP4K4 DiscoveRx kinase panel; conditions: Compound concentration 1.0 uM
[25] = target: Tyrosine-protein kinase Srms (Homo sapiens) (UniProt Q9H3Y6); test: SRMS DiscoveRx kinase panel; conditions: Compound concentration 1.0 uM
[26] = target: cGMP-dependent protein kinase 1 (Homo sapiens) (UniProt Q13976); test: PRKG1 DiscoveRx kinase panel; conditions: Compound concentration 1.0 uM
[27] = target: Tyrosine-protein kinase ABL1 (Homo sapiens) (UniProt P00519); test: ABL1-phosphorylated DiscoveRx kinase panel; conditions: Compound concentration 1.0 uM
Sequence of Tyrosine-protein kinase ABL1 (Homo sapiens) (P00519 whole entry): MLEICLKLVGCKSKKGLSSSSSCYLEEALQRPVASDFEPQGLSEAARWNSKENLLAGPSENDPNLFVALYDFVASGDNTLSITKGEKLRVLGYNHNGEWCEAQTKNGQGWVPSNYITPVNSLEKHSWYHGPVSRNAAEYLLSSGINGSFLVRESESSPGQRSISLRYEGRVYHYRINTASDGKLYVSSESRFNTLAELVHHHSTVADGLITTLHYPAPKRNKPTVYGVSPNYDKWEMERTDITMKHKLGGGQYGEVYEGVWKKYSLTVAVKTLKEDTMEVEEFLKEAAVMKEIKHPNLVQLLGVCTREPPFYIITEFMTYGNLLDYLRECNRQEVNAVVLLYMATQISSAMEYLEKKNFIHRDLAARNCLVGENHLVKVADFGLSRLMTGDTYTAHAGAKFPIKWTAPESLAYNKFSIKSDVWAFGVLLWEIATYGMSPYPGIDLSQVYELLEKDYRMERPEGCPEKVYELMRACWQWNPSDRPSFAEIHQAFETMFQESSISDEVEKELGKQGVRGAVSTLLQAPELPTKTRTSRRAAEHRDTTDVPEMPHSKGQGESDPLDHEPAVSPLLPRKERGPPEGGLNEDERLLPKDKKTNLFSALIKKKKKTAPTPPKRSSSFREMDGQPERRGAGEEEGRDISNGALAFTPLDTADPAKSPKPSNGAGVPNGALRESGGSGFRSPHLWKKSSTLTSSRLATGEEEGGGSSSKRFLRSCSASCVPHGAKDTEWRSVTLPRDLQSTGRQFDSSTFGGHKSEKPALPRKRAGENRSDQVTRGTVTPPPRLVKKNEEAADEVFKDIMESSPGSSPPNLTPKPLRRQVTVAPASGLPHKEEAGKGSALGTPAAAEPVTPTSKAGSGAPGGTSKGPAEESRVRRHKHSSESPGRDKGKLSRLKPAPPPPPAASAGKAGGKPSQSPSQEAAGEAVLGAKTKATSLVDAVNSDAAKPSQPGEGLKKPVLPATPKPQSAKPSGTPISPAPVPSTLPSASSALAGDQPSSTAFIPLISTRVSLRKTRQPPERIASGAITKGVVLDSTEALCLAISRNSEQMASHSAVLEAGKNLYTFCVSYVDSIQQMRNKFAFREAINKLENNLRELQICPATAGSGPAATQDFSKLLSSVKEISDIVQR

[28] = target: Serine/threonine-protein kinase 3 (Homo sapiens) (UniProt Q13188); test: MST2 DiscoveRx kinase panel; conditions: Compound concentration 1.0 uM
[29] = target: Fibroblast growth factor receptor 1 (Homo sapiens) (UniProt P11362); test: FGFR1 DiscoveRx kinase panel; conditions: Compound concentration 1.0 uM
[30] = target: Calcium/calmodulin-dependent protein kinase type II subunit beta (Homo sapiens) (UniProt Q13554); test: CAMK2B DiscoveRx kinase panel; conditions: Compound concentration 1.0 uM
[31] = target: Gastrin/cholecystokinin type B receptor (Homo sapiens) (UniProt P32239); test: Cholecystokinin CCK2 (CCKB) Eurofins-Panlabs radioligand binding assay; conditions: Compound concentration 10.0 uM
[32] = target: Serine/threonine-protein kinase OSR1 (Homo sapiens) (UniProt O95747); test: OSR1 DiscoveRx kinase panel; conditions: Compound concentration 1.0 uM
[33] = target: Mitogen-activated protein kinase kinase kinase 19 (Homo sapiens) (UniProt Q56UN5); test: YSK4 DiscoveRx kinase panel; conditions: Compound concentration 1.0 uM
[34] = target: Phosphatidylinositol 3-kinase C2 domain-containing subunit gamma (Homo sapiens) (UniProt O75747); test: PIK3C2G DiscoveRx kinase panel; conditions: Compound concentration 1.0 uM
[35] = target: Cyclin-dependent kinase 4 (Homo sapiens) (UniProt P11802); test: CDK4 DiscoveRx kinase panel; conditions: Compound concentration 1.0 uM
[36] = target: Activin receptor type-1-like (Homo sapiens) (UniProt P37023); test: ACVRL1 DiscoveRx kinase panel; conditions: Compound concentration 1.0 uM
[37] = target: NT-3 growth factor receptor (Homo sapiens) (UniProt Q16288); test: TRKC DiscoveRx kinase panel; conditions: Compound concentration 1.0 uM
[38] = target: Mitotic checkpoint serine/threonine-protein kinase BUB1 (Homo sapiens, UniProt O43683); test: ePCA binding competition (equilibrium binding assay)
MDA-MB-436 = test: MDA-MB-436 cell line Proliferation assay; format: functional, Homo sapiens; conditions: time 4 day
[39] = target: Serine/threonine-protein kinase RIO1 (Homo sapiens) (UniProt Q9BRS2); test: RIOK1 DiscoveRx kinase panel; conditions: Compound concentration 1.0 uM
[40] = target: Serine/threonine-protein kinase Nek4 (Homo sapiens) (UniProt P51957); test: NEK4 DiscoveRx kinase panel; conditions: Compound concentration 1.0 uM
[41] = target: Death-associated protein kinase 3 (Homo sapiens) (UniProt O43293); test: DAPK3 DiscoveRx kinase panel; conditions: Compound concentration 1.0 uM
[42] = target: Proto-oncogene tyrosine-protein kinase ROS (Homo sapiens) (UniProt P08922); test: ROS1 DiscoveRx kinase panel; conditions: Compound concentration 1.0 uM
[43] = target: 5-hydroxytryptamine receptor 1B (Homo sapiens) (UniProt P28222); test: Serotonin (5-Hydroxytryptamine) 5-HT1B Eurofins-Panlabs radioligand binding assay; design: ligand concentration 1 nM; conditions: Compound concentration 10.0 uM
[44] = target: Inhibitor of nuclear factor kappa-B kinase subunit alpha (Homo sapiens) (UniProt O15111); test: IKK-alpha DiscoveRx kinase panel; conditions: Compound concentration 1.0 uM
Sequence of Inhibitor of nuclear factor kappa-B kinase subunit alpha (Homo sapiens) (O15111 whole entry): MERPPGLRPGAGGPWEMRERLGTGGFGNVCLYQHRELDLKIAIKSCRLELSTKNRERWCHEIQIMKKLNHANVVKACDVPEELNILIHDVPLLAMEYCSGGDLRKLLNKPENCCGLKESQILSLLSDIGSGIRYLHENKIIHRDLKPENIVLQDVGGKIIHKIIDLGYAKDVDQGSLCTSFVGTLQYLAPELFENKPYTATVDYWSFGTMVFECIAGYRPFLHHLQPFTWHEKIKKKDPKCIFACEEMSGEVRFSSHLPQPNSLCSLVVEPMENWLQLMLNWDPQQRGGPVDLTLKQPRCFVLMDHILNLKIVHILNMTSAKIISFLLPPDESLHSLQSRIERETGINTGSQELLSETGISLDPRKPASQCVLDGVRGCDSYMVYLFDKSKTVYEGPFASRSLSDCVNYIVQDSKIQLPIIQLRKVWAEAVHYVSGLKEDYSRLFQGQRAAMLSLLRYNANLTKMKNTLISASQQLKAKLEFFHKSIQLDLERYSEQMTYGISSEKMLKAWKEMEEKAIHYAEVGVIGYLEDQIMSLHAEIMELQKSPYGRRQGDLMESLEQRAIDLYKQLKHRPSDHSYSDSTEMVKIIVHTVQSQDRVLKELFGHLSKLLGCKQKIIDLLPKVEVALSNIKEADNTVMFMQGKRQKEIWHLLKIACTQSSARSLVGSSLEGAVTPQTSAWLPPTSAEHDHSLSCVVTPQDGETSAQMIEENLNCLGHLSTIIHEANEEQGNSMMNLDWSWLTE

[45] = target: D(3) dopamine receptor (Homo sapiens) (UniProt P35462); conditions: Compound concentration 10.0 uM

In the case of `COc1cnccc1Nc1nc(-c2nn(Cc3c(F)cc(OCCO)cc3F)c3ccccc23)ncc1OC`, the residual activity [1] is reported as 100%, the residual activity [2] is reported as 90% and the residual activity [3] is reported as 97%. For the same compound, the inhibition [4] was 24%, the “Cell Proliferation IC50” value (SK-BR-3) was 1100 nM and the residual activity [5] was 81%. For the same compound, the inhibition [6] was -2%, the residual activity [7] was 100% and the residual activity [8] was 100%. The residual activity [9] was 100%, the inhibition [10] was 9% and the inhibition [11] was 10%. It also gave a residual activity [12] of 63%, a residual activity [13] of 100% and a residual activity [14] of 100%. For the same compound, the residual activity [15] was 76%, the residual activity [16] was 95% and the residual activity [17] was 74%. The inhibition (Homo sapiens) was 17%, the residual activity [18] was 100% and the residual activity [19] was 100%. The inhibition [20] was 4%, the residual activity [21] was 94% and the residual activity [22] was 100%. It also gave a residual activity [23] of 92%, a residual activity [24] of 62% and a residual activity [25] of 100%. The residual activity [26] was 74%, the residual activity [27] was 94% and the residual activity [28] was 82%. It also gave a residual activity [29] of 87%, a residual activity [30] of 100% and an inhibition [31] of 1%. For the same compound, the residual activity [32] was 100%, the residual activity [33] was 97% and the residual activity [34] was 98%. The residual activity [35] was 100%, the residual activity [36] was 69% and the residual activity [37] was 98%. For the same compound, the IC50 [38] was 1 nM (active), the “Cell Proliferation IC50” value (MDA-MB-436) was 1200 nM and the residual activity [39] was 79%. For the same compound, the residual activity [40] was 99%, the residual activity [41] was 84% and the residual activity [42] was 100%. The inhibition [43] was 15%, the residual activity [44] was 100% and the inhibition [45] was 1.89%.
